{"source": "patent US20250382556A1", "about": "“MODULATION OF THE BRANCHED-CHAIN METABOLITE CONTENT OF FRUITS AND VEGETABLES” (BOARD OF TRUSTEES OF MICHIGAN STATE UNIVERSITY, priority 2024, published 2025)", "tested_on": "apple peel", "experiment": "Free amino acid content of apple peel via UPLC-MS/MS after AHAS inhibitor treatment", "type": "in vivo, Malus x domestica Borkh.", "design": "key to free asparagine content compared to control / free aspartate content compared to control / free cysteine content compared to control / free glutamate content compared to control / free glutamine content compared to control / free glycine content compared to control / free histidine content compared to control / free lysine content compared to control / free methionine content compared to control / free phenylalanine content compared to control / free serine content compared to control / free threonine content compared to control / free tryptophan content compared to control / free tyrosine content compared to control / free valine content compared to control / total free amino acid content compared to control / free alanine content compared to control / free arginine content compared to control: —: Dash indicates no significant difference between treatments", "conditions": "for free alanine content compared to control / free arginine content compared to control / free asparagine content compared to control / free aspartate content compared to control / free cysteine content compared to control / free glutamate content compared to control / free glutamine content compared to control / free glycine content compared to control / free histidine content compared to control / free isoleucine content compared to control / free leucine content compared to control / free lysine content compared to control / free methionine content compared to control / free phenylalanine content compared to control / free serine content compared to control / free threonine content compared to control / free tryptophan content compared to control / free tyrosine content compared to control / free valine content compared to control / total free amino acid content compared to control: 1 mM daily", "protocol": "Whole apple fruit, freshly harvested and at an early stage of ripening (‘ripening’), were held at room temperature (22° C.) and rubbed daily with 3 mL of a freshly made 1mM solution of the inhibitor rimsulfuron (N-((4,6-dimethoxypyrimidin-2-yl)aminocarbonyl)-3-(ethylsulfonyl)-2-pyridinesulfonamide, made from DuPont MATRIX® SG, 25% w/w active ingredient; 0.1% Tween 20) or water solution containing 0.1% Tween 20 before preparation with further treatments. Flowering quince fruit were smaller than the apple fruit and had 2 mL of the control and treatment solutions applied daily at 22° C. ‘Gala’, ‘Empire’, and ‘Jonagold’ apple fruit were treated for four, nine, and seven days before further preparation, respectively. Flowering quince fruit were treated for six days before analysis. Headspace volatile emissions were monitored for three or four representative fruits during the incubation/treatment period to determine appropriate times for further treatments. During method testing, 1 mM solutions of the imidazolinone imazamox was also assessed with apple fruit (2-[4,5-dihydro-4-methyl-4-(1-methylethyl)-5-oxo-1H-imidazol-2-yl]-5-(methoxymethyl)-3-pyridinecarboxylic acid, made from RAPTOR®, 12.1% w/w active ingredient; 0.1% Tween 20).\nAfter volatile analysis, apple peel disks, collected peel of flowering quince, and ‘Valery’ pulp section samples were held at −80° C. for further amino acid analysis.\nFrozen samples were ground to a powder in liquid nitrogen-chilled mortar and pestles. About 500 mg of tissue was vortexed for 10 sec in 2 mL of room temperature (22° C.) extraction solution (1:1:1 water:acetonitrile:ethanol, v/v/v) spiked with 2 nmoles of U-^13C,^15N labeled amino acids (MilliporeSigma) as internal standards and heated for 15 min in a 65° C. water bath. Extracts were briefly chilled on ice before centrifugation at 4400×g for 15 min at 4° C. The supernatant was filtered by centrifugation (0.2 μm nylon centrifugal filter; Costar, Corning) at 21000×g for 5 min at room temperature. 10 μL of the filtrate was transferred to an autosampler vial and diluted 100-fold with 990 μL of 10.1 mM perfluorohexanoic acid (PFHA) spiked with […] of internal standard. Thus the final concentration of internal standard was ˜2 μM.\nAn amino acid standard series was prepared from a premade mixture (MilliporeSigma, AAS18) that contained equal molar amounts of cystine and all 20 proteinogenic amino acids save for tryptophan, asparagine, glutamine, and cysteine. An equal molar mixture of tryptophan, asparagine, glutamine, and cysteine was subsequently prepared. To avoid dilution errors or artefacts from differing buffers, these amino acid stocks were aliquoted and desiccated such that a five-part standard series ranging from 250 μM to 25 nM would be produced upon resuscitation with 10 μL of spiked extraction buffer and 990 μL spiked PFHA solution.\nSamples and amino acids were held overnight at −20° C. before analysis. Amino acids were analyzed with a Xevo TQ-S Micro UPLC (H-Class)-MS/MS (Waters) at the Michigan State University Mass Spectrometry and Metabolomics Core. Conditions were as follows. HPLC column: Acquirt UPLC HSS T3, 2.1×100 mm, 1.7 μm particle size (Waters), with a 0.2 μm pre-column filter (Waters). Mobile phase: A) 10 mM PFHA in water, B) acetonitrile. LC gradient: linear gradient, slope setting=6, flow rate=0.3 mL·min^−1, step 1) 0 min, 100% A, 0% B, 2) 1 min, 100% A, 0% B, 3) 8 min, 35% A, 65% B, 4) 8.01 min, 10% A, 90% B, 5) 9 min, 10% A, 90% B, 6) 9.01 min, 100% A, 0% B, 7) 13 min, 100% A, 0% B. Column temp: 40° C. Autosampler temp: 10° C. Injection volume: 10 μL. Tune parameters: electrospray ionization, standard ESI probe, capillary voltage=+1.0 kV, source temp=120° C., desolvation temp=350° C., desolvation gas=800 L·hr^−1, cone gas=40 L·hr^−1. MS collection was split into three phases and were adjusted after checking the retention time of several samples; however proline was missed for apple and flowering quince samples. […]", "key": {"[1]": {"conditions": "ripening Empire apple peel, nine days"}, "[2]": {"conditions": "ripening Gala apple peel, four days"}, "[3]": {"conditions": "ripening Jonagold apple peel, seven days"}}, "data": [{"smiles": "CCS(=O)(=O)c1cccnc1S(=O)(=O)NC(=O)Nc1nc(OC)cc(OC)n1", "note": "[rimsulfuron, N-((4,6-dimethoxypyrimidin-2-yl)aminocarbonyl)-3-(ethylsulfonyl)-2-pyridinesulfonamide]", "values": [{"measurement": "free alanine content compared to control", "setting": "[1]", "value": "—"}, {"measurement": "free arginine content compared to control", "setting": "[1]", "value": "—"}, {"measurement": "free asparagine content compared to control", "setting": "[1]", "value": "—"}, {"measurement": "free aspartate content compared to control", "setting": "[1]", "value": "—"}, {"measurement": "free cysteine content compared to control", "setting": "[1]", "value": "261.5 ± 32.5", "unit": "%"}, {"measurement": "free glutamate content compared to control", "setting": "[1]", "value": "—"}, {"measurement": "free glutamine content compared to control", "setting": "[1]", "value": "—"}, {"measurement": "free glycine content compared to control", "setting": "[1]", "value": "—"}, {"measurement": "free histidine content compared to control", "setting": "[1]", "value": "—"}, {"measurement": "free isoleucine content compared to control", "setting": "[1]", "value": "3.3 ± 0.7", "unit": "%"}, {"measurement": "free leucine content compared to control", "setting": "[1]", "value": "422.8 ± 100.1", "unit": "%"}, {"measurement": "free lysine content compared to control", "setting": "[1]", "value": "—"}, {"measurement": "free methionine content compared to control", "setting": "[1]", "value": "212.7 ± 26.8", "unit": "%"}, {"measurement": "free phenylalanine content compared to control", "setting": "[1]", "value": "—"}, {"measurement": "free serine content compared to control", "setting": "[1]", "value": "—"}, {"measurement": "free threonine content compared to control", "setting": "[1]", "value": "—"}, {"measurement": "free tryptophan content compared to control", "setting": "[1]", "value": "—"}, {"measurement": "free tyrosine content compared to control", "setting": "[1]", "value": "—"}, {"measurement": "free valine content compared to control", "setting": "[1]", "value": "—"}, {"measurement": "total free amino acid content compared to control", "setting": "[1]", "value": "—"}, {"measurement": "free alanine content compared to control", "setting": "[2]", "value": "273.4 ± 27.4", "unit": "%"}, {"measurement": "free arginine content compared to control", "setting": "[2]", "value": "—"}, {"measurement": "free asparagine content compared to control", "setting": "[2]", "value": "—"}, {"measurement": "free aspartate content compared to control", "setting": "[2]", "value": "231.8 ± 18.0", "unit": "%"}, {"measurement": "free cysteine content compared to control", "setting": "[2]", "value": "—"}, {"measurement": "free glutamate content compared to control", "setting": "[2]", "value": "146.3 ± 5.6", "unit": "%"}, {"measurement": "free glutamine content compared to control", "setting": "[2]", "value": "250.7 ± 33.5", "unit": "%"}, {"measurement": "free glycine content compared to control", "setting": "[2]", "value": "—"}, {"measurement": "free histidine content compared to control", "setting": "[2]", "value": "—"}, {"measurement": "free isoleucine content compared to control", "setting": "[2]", "value": "16.4 ± 6.3", "unit": "%"}, {"measurement": "free leucine content compared to control", "setting": "[2]", "value": "214.4 ± 42.2", "unit": "%"}, {"measurement": "free lysine content compared to control", "setting": "[2]", "value": "—"}, {"measurement": "free methionine content compared to control", "setting": "[2]", "value": "—"}, {"measurement": "free phenylalanine content compared to control", "setting": "[2]", "value": "—"}, {"measurement": "free serine content compared to control", "setting": "[2]", "value": "300.1 ± 27.7", "unit": "%"}, {"measurement": "free threonine content compared to control", "setting": "[2]", "value": "182.3 ± 14.2", "unit": "%"}, {"measurement": "free tryptophan content compared to control", "setting": "[2]", "value": "—"}, {"measurement": "free tyrosine content compared to control", "setting": "[2]", "value": "—"}, {"measurement": "free valine content compared to control", "setting": "[2]", "value": "—"}, {"measurement": "total free amino acid content compared to control", "setting": "[2]", "value": "191.5 ± 20.4", "unit": "%"}, {"measurement": "valine following treatment", "setting": "ripening Gala, Empire, Jonagold peels", "value": "unaffected"}, {"measurement": "free alanine content compared to control", "setting": "[3]", "value": "—"}, {"measurement": "free arginine content compared to control", "setting": "[3]", "value": "—"}, {"measurement": "free asparagine content compared to control", "setting": "[3]", "value": "—"}, {"measurement": "free aspartate content compared to control", "setting": "[3]", "value": "—"}, {"measurement": "free cysteine content compared to control", "setting": "[3]", "value": "410.6 ± 49.6", "unit": "%"}, {"measurement": "free glutamate content compared to control", "setting": "[3]", "value": "—"}, {"measurement": "free glutamine content compared to control", "setting": "[3]", "value": "—"}, {"measurement": "free glycine content compared to control", "setting": "[3]", "value": "—"}, {"measurement": "free histidine content compared to control", "setting": "[3]", "value": "—"}, {"measurement": "free isoleucine content compared to control", "setting": "[3]", "value": "4.1 ± 1.3", "unit": "%"}, {"measurement": "free leucine content compared to control", "setting": "[3]", "value": "393.2 ± 74.4", "unit": "%"}, {"measurement": "free lysine content compared to control", "setting": "[3]", "value": "—"}, {"measurement": "free methionine content compared to control", "setting": "[3]", "value": "218.3 ± 31.0", "unit": "%"}, {"measurement": "free phenylalanine content compared to control", "setting": "[3]", "value": "—"}, {"measurement": "free serine content compared to control", "setting": "[3]", "value": "191.9 ± 32.1", "unit": "%"}, {"measurement": "free threonine content compared to control", "setting": "[3]", "value": "—"}, {"measurement": "free tryptophan content compared to control", "setting": "[3]", "value": "—"}, {"measurement": "free tyrosine content compared to control", "setting": "[3]", "value": "—"}, {"measurement": "free valine content compared to control", "setting": "[3]", "value": "—"}, {"measurement": "total free amino acid content compared to control", "setting": "[3]", "value": "—"}, {"measurement": "reduction of isoleucine in the peels", "setting": "ripening fruit of the three cultivars (Gala, Empire, Jonagold), on average", "value": 92.1, "unit": "%"}, {"measurement": "increase of leucine content", "setting": "three ripening cultivars, on average", "value": 3.4, "unit": "fold"}]}]}
